Results published in patent US11696914B1 (priority 2019, dated 2023).
Values joined by “and” are separate entries in the source; they are usually repeats but may differ in a detail not shown here. Identical values can stand only once. Like-named read-outs stand apart in the source and are kept apart here.

Experiments:
in vitro [1] = conditions: mouse
Nipah virus = assay: microbe, parasite or virus in culture; type: cell-based; conditions: Henipavirus nipahense, read-out: IC50 against Nipah virus
[2] = male, Hartley, guinea pig, in vivo
SARS-CoV-2 = assay: microbe, parasite or virus in culture; type: cell-based
[3] = tested on: Ebola virus/H.sapiens-tc/COD/1976/Yambuku-Mayinga (EBOV/May); assay: microbe, parasite or virus in culture; type: cell-based; conditions: Zaire ebolavirus, HeLa
Vaccinia Virus = assay: microbe, parasite or virus in culture; type: cell-based; conditions: Orthopoxvirus vaccinia
Yellow Fever virus = assay: microbe, parasite or virus in culture; type: cell-based; conditions: Vero 76
Influenza A virus H1N1 = assay: microbe, parasite or virus in culture; type: cell-based; conditions: H1N1, MDCK
in vitro [4] = conditions: African green monkey
[5] = tested on: Vesicular Stomatitis Virus (VSV) pseudotyped with EBOV glycoprotein; assay: microbe, parasite or virus in culture; type: cell-based, Ebola virus; conditions: HeLa, read-out: IC50, inhibition of EBOV-VSV pseudovirus entry
[6] = human, microsomes
[7] = tested on: Marburg virus/H.sapiens-tc/KEN/1980/Mt. Elgon-Musoke (MARV/Mus); assay: organism not typed; type: cell-based; conditions: HeLa
West Nile virus = assay: microbe, parasite or virus in culture; type: cell-based; conditions: Vero 76
Herpes Simplex Virus 1 = assay: microbe, parasite or virus in culture; type: cell-based; conditions: Human alphaherpesvirus 1
Hartley guinea pigs = conditions: both, guinea pig, in vivo
[8] = tested on: Marburg virus/H.sapiens-tc/AGO/2005/Ang-1379v (MARV/Ang); assay: organism not typed; type: cell-based; conditions: HeLa
SARS-CoV-2 Spike RBD = SARS-CoV-2 Spike RBD (Severe acute respiratory syndrome coronavirus 2, UniProt P0DTC2); type: binding
[9] = guinea pig, microsomes
Hepatitis C virus = assay: microbe, parasite or virus in culture; type: cell-based; conditions: Huh-7
[10] = tested on: Ebola virus/H.sapiens-tc/COD/1995/Kikwit-9510621 (EBOV/Kik); assay: microbe, parasite or virus in culture; type: cell-based; conditions: Zaire ebolavirus, HeLa
[11] = tested on: Ebola virus/H.sapiens-tc/GIN/2014/Makona-005 (EBOV/Mak); assay: microbe, parasite or virus in culture; type: cell-based; conditions: Zaire ebolavirus, HeLa
Dengue Virus 2 = assay: microbe, parasite or virus in culture; type: cell-based; conditions: Vero 76
HeLa cells = conditions: human
[12] = human, microsomes, 1 h, pH 7.4
Chikungunya virus = assay: microbe, parasite or virus in culture; type: cell-based; conditions: Vero 76
in vitro [13] = conditions: human
[14] = tested on: Marburg virus (MARV), Musoke strain; assay: organism not typed; type: cell-based; conditions: HeLa; n=6; read-out: IC50 ± SEM versus MARV Musoke strain
[15] = tested on: murine hepatitis virus (MHV); assay: microbe, parasite or virus in culture; type: cell-based; conditions: Murine coronavirus, read-out: IC50 versus murine hepatitis virus (MHV)
Vero = conditions: African green monkey
[16] = tested on: Venezuelian equine encephalitis virus; assay: microbe, parasite or virus in culture; type: cell-based; conditions: Venezuelan equine encephalitis virus, Vero 76
Hepatitis B virus = assay: microbe, parasite or virus in culture; type: cell-based; conditions: HepG2 2.2.15
Zika virus = assay: microbe, parasite or virus in culture; type: cell-based; conditions: Vero 76
[17] = guinea pig, pH 7.4
Human cytomegalovirus = assay: microbe, parasite or virus in culture; type: cell-based; conditions: Human betaherpesvirus 5
[18] = mouse, microsomes
[19] = microsomes
MERS coronavirus = assay: microbe, parasite or virus in culture; type: cell-based; conditions: Middle East respiratory syndrome-related coronavirus, Vero 76
Rift Valley fever virus = assay: microbe, parasite or virus in culture; type: cell-based; conditions: Vero 76

COc1ccc2nc3cc(Cl)ccc3c(Nc3cc(CN4CCCC4)c(O)c(CN4CCCC4)c3)c2n1 [Pyronaridine, 4-[(7-Chloro-2-methoxybenzo[b][1,5]naph-thyridin-10-yl)amino]-2,6-bis(1-pyrrolidinylmethyl)phenol phosphate (1:4)]
CC50 (in vitro [1]): > 40000 nM | IC50 (Nipah virus): 64 nM | guinea pigs found dead on days 14 and 17 post dose ([2]; ip): 2 of 3 | measurable plasma levels through ([2]; ip): 168 h | AUCinf Mean ([2]; ip, 125 mg/kg): 17,430 hr * ng/ml | AUClast Mean ([2]; ip, 125 mg/kg): 16,565 hr * ng/ml | Cmax Mean ([2]; ip, 125 mg/kg): 523 ng/mL | T1/2 ([2]; ip, 125 mg/kg): 72.7 h | measurable plasma levels through ([2]; po): 336 h | AUCinf Mean ([2]; po, 600 mg/kg): 58,783 hr * ng/ml | AUClast Mean ([2]; po, 600 mg/kg): 50,964 hr * ng/ml | Cmax Mean ([2]; po, 600 mg/kg): 1800 ng/mL | T1/2 ([2]; po, 600 mg/kg): 90.5 h | IC50 (SARS-CoV-2; Severe acute respiratory syndrome coronavirus 2, A549-ACE2, read-out: IC50 against SARS-CoV-2): < 200 nM | IC50 (SARS-CoV-2; read-out: IC50 against SARS-CoV-2): ~198 nM and 198 nM | IC50 [3]: 1010 ± 580 nM | EC50 (Vaccinia Virus): > 1200 nM | EC90 (Vaccinia Virus): > 1200 nM | EC50 (Yellow Fever virus): 3200 nM | EC50 (Influenza A virus H1N1): 3200 nM | CC50 (in vitro [4]): 7500 nM | IC50 [5]: 2070 nM | Clint [6]: 11.4 | Dextromethorphan: compound, t1/2 normalized to dextromethorphan control [6]: 6.2 | t1/2 [6]: 2.037 h | IC50 [7]: 1010 ± 110 nM | EC50 (West Nile virus): > 24000 nM | EC50 (Herpes Simplex Virus 1): > 6000 nM | EC90 (Herpes Simplex Virus 1): > 6000 nM | guinea pigs found dead on days 5 and 6 (Hartley guinea pigs): 2 of 6 | guinea pigs found dead within 30 mins post injection (Hartley guinea pigs): 4 of 6 | guinea pigs having any abnormal clinical observations (Hartley guinea pigs): 1 of 6 | maximum tolerated dose (MTD), single dose (Hartley guinea pigs; ip): 125 mg/kg | maximum tolerated dose (MTD), single dose (Hartley guinea pigs; po): > 600 mg/kg | IC50 [8]: 2720 ± 970 nM | IC50 ([8]; read-out: IC50 range against two strains of Marburg virus): 1010 to 2720 nM | Kd (SARS-CoV-2 Spike RBD; pH5.2): 618 nM | Kd (SARS-CoV-2 Spike RBD; pH 7.4): 647 nM | Clint [9]: 21.0 | Dextromethorphan: compound, t1/2 normalized to dextromethorphan control [9]: 23.4 | t1/2 [9]: 1.1 h | EC50 (Hepatitis C virus): 780 nM | EC90 (Hepatitis C virus): 1710 nM | IC50 [10]: 1300 ± 420 nM | IC50 ([10]; read-out: IC50 range against three strains of EBOV): 820 to 1300 nM | IC50 [11]: 820 ± 190 nM | EC50 (Dengue Virus 2): 3200 nM | CC50 (HeLa cells): 4110 ± 500 nM | Relative Peak Area/Abundance HLM [12]: 85.9% | EC50 (Chikungunya virus): 3200 nM | CC50 (in vitro [13]): > 100000 nM | IC50 [14]: 1080 ± 197 nM | IC50 [15]: 2750 nM | CC50 (Vero): 3200 nM | EC50 [16]: 1800 nM | EC50 (Hepatitis B virus): 4520 nM | EC90 (Hepatitis B virus): > 100000 nM | EC50 (Zika virus): 3200 nM | Relative Peak Area/Abundance GPLM [17]: 75.9% | EC50 (Human cytomegalovirus): > 1200 nM | EC90 (Human cytomegalovirus): > 1200 nM | Clint [18]: <7.4 | Dextromethorphan: compound, t1/2 normalized to dextromethorphan control [18]: >11.5 | t1/2 [18]: >3.1 h | Clint [19]: 15.5 | Dextromethorphan: compound, t1/2 normalized to dextromethorphan control [19]: 16.7 | t1/2 ([19]; monkey): 1.5 h | EC50 (MERS coronavirus): 3200 nM | EC50 (Rift Valley fever virus): 3200 nM
